Values of other authors as cited in US20070197486A1, “Methods and systems for the delivery of corticosteroids” (Verus Pharmaceuticals, Inc., priority 2005, published 2007).
Where two headings read alike, the source gives them in different places.

solubility (in alcohols): readily soluble | solubility (in water): virtually insoluble
Structure (SMILES): CCCC1O[C@@H]2C[C@H]3[C@@H]4CCC5=CC(=O)C=C[C@]5(C)[C@H]4[C@@H](O)C[C@]3(C)[C@]2(C(=O)CO)O1 (stereo partly drawn) [budesonide, (R,S)-11β,16α,17,21-tetrahydroxypregna-1,4-diene-3,20-dione cyclic 16,17-acetal with butyraldehyde]
